This note sets out measurements from patent publication US7902253B2, “Isoflavone derivatives of tectorigenin, the preparation thereof and the antiviral medicine containing the same as an effective constituent” (priority 2003, dated 2011).

The subject of data set [1] is influenza virus type A1 (Flu•V A1). The data set is classed as cell-based.
The test system of data set [2] is influenza virus type A3 (Flu•V A3). The format is cell-based.
Data set [3] has as its system Coxsackie virus group B (CoxBV). The data set is classed as cell-based.
Another data set deals with adenovirus type 3 (ADV3). The format is cell-based.
In data set [4] the test system is respiratory syncytial virus (RSV). The data set is classed as cell-based.
A further data set has as its system coronavirus BJ01 strain. The experiment in a line: organism not typed. The data set is classed as cell-based, coronavirus (SARS). Conditions: for IC50: Vero C1008, 120 h.
Another data set concerns adenovirus type 7 (ADV7). The format is cell-based.
A further data set has as its system HSV-1. The format is cell-based.
The next data set deals with VZV. The data set is classed as cell-based.
A short description of data set [5]: solubility test in water (Chinese Pharmacopeia method). Conditions: 25° C.±2° C., shaken every five minutes for 30 minutes.
For the next data set, the system named is Vero-E6 cell. Nature of the data set: toxicity to Vero-E6 cell (CPE, REED-MUENCH). Conditions: five days, CPE index.
Data set [6] is described as follows: solubility in water stated in description and preparation examples. The format is physicochemical.
Another data set has as its system Z-HL16C cells. Nature of the data set: cell toxicity test. Conditions: all concentrations tested.
Another data set concerns Hep-2 cells. The experiment in a line: cell toxicity test. Conditions: Hep-2, all concentrations tested.
Data set [7] can be described thus: clarity of injection after adding glucose. The data set is classed as physicochemical.
[8] abbreviates: product of the preparation example (salt as made), read-out: solubility in water.

In brackets after ≈: the same amount, converted by molar mass. Several values for one entry are separate records, joined by “and”; a condition that tells them apart may be missing. Identical values can stand only once. Like-named read-outs stand apart in the source and are kept apart here.

Consider `NC(=O)c1ncn([C@@H]2O[C@H](CO)[C@@H](O)[C@H]2O)n1` [Ribavirin, reference compound], for which the “cell pathologic change degree” value in [1] is 1+ and 3+; in [2] it was 1+ and 3+; in data set [3], 2+ and 3+; with adenovirus type 3 (ADV3), 1+ and 2+ and 3+; in [4] it was 2+ and 3+; with adenovirus type 7 (ADV7), 2+ and 3+. In addition, in the data set with HSV-1, the “cell pathologic change degree” value was 1+ and 2+ and 3+. Besides, the “Pathologic change pore/cell pore” value with coronavirus BJ01 strain was 2/4 and 3/4 and 4/4 and 0/4 and 1/4.

As for `COc1c(O)c(CN2CCCCC2)c2occ(-c3ccc(O)cc3)c(=O)c2c1O` [Compound (IX)], the “cell pathologic change degree” value in data set [1] is 2+; in data set [2], 1+ and 2+ and 3+; in data set [3], 1+ and 2+ and 3+; with VZV, 1+ and 2+ and 3+; with adenovirus type 3 (ADV3) it was 1+ and 3+; in data set [4], 2+. Besides, the “cell pathologic change degree” value is 2+ and 3+ in the data set on adenovirus type 7 (ADV7); 2+ in the data set with HSV-1. Further, the “Solute: water” value in data set [5] came out at 8 mg/mL. Also, the IC50 in the data set with coronavirus BJ01 strain was determined as 125 µg/mL (≈ 315 µM). Also, the “TD50 (median toxic concentration)” value in the data set with Vero-E6 cell stood at 2.89 mg/mL. The solubility in [6] (setting [8]) is below 1000 µg/mL.

Take `COc1c(O)cc2occ(-c3ccc(OCCN(C)C)cc3)c(=O)c2c1O` [Compound (VIII)]: the “cell pathologic change degree” value in [1] was 2+; in data set [2], 1+ and 2+ and 3+; in [3], 1+ and 2+ and 3+; with VZV it was 2+; in the data set with adenovirus type 3 (ADV3), 1+ and 2+ and 3+; in data set [4], 2+ and 3+. Further, the “cell pathologic change degree” value with adenovirus type 7 (ADV7) is 2+ and 3+; in the data set on HSV-1, 1+ and 2+. Further, the “Solute: water” value in data set [5] was 10 mg/mL. In addition, the IC50 with coronavirus BJ01 strain came out at 112 µg/mL (≈ 302 µM). Further, the “TD50 (median toxic concentration)” value in the data set on Vero-E6 cell came to 3.45 mg/mL. Besides, in [6] (setting [8]), the solubility was above 2000 µg/mL.

For `COc1c(O)cc2occ(-c3ccc(O)cc3)c(=O)c2c1O` [Compound (I), 5,7,4′-trihydroxy-6-methoxyl isoflavone, reference compound], in data set [5], the “Solute: water” value turned out to be 0.1 mg/mL.

For the compound `C=C1CC[C@@H]2[C@](C)(COC(=O)CCC(=O)[O-])[C@H](OC(=O)CCC(=O)[O-])CC[C@@]2(C)[C@@H]1/C=C/C1=CCOC1=O.[K+].[Na+]` [Chuanhuning, Potassium Sodium Dehydroandroandrographolide Succinate, reference compound], the “toxic reaction to cells (in words)” value in the data set on Z-HL16C cells and in the data set with Hep-2 cells was “no any toxic reaction” each time. Further, the “cell pathologic change degree” value in data set [1] is 2+ and 3+; in [2], 2+ and 3+; in data set [3] it was 2+ and 3+; in the data set with VZV, 1+ and 2+ and 3+; in the data set on adenovirus type 3 (ADV3), 2+ and 3+; in data set [4] it was 2+ and 3+. Also, the “cell pathologic change degree” value in the data set with adenovirus type 7 (ADV7) was 2+ and 3+; in the data set with HSV-1, 1+ and 2+ and 3+. The “effect on cytopathogenesis (in words)” value (in [1]; in data set [2]; in data set [3]; in the data set on adenovirus type 3 (ADV3); in [4]; with adenovirus type 7 (ADV7)) was “inhibiting effect” each time.

For `COc1c(O)cc2occ(-c3ccc(OCC(=O)[O-])cc3)c(=O)c2c1O.[Na+]` [Compound (VII)], the “cell pathologic change degree” value in data set [1] was 2+; in data set [2], 1+ and 2+ and 3+; in data set [3], 1+ and 2+ and 3+; in the data set on VZV, 1+ and 2+; in the data set on adenovirus type 3 (ADV3), 1+ and 2+; in [4] it was 2+ and 3+. Also, the “cell pathologic change degree” value in the data set with adenovirus type 7 (ADV7) was 2+ and 3+; in the data set on HSV-1, 1+. Moreover, the “Solute: water” value in [5] was 15 mg/mL. In the data set with coronavirus BJ01 strain, this compound returned an IC50 of 102 µg/mL. In the data set with Vero-E6 cell, the “TD50 (median toxic concentration)” value was 4.20 mg/mL. Moreover, in [6] (setting [8]), the solubility is above 2000 µg/mL.

On to `COc1c(O)cc2occ(-c3ccc(O)c(N)c3)c(=O)c2c1O` [Compound (VI)], for which the “cell pathologic change degree” value was 2+ in [1]; 1+ and 2+ and 3+ in data set [2]; 2+ in data set [3]; 2+ and 3+ with VZV; 1+ and 2+ and 3+ in the data set with adenovirus type 3 (ADV3); 2+ and 3+ in [4]. The “cell pathologic change degree” value with adenovirus type 7 (ADV7) is 2+ and 3+; with HSV-1, 1+ and 2+ and 3+. For the same compound, the “Solute: water” value in [5] was 8 mg/mL. Moreover, the IC50 in the data set with coronavirus BJ01 strain was determined as 120 µg/mL (≈ 381 µM). Also, the “TD50 (median toxic concentration)” value in the data set with Vero-E6 cell came out at 3.85 mg/mL. The solubility in [6] (setting [8]) is above 1000 µg/mL.

Consider `COc1c(O)c(CN(C)C)c2occ(-c3ccc(O)cc3)c(=O)c2c1O` [Compound (X)], for which the “cell pathologic change degree” value was 2+ in data set [1]; 1+ and 2+ and 3+ in data set [2]; 1+ and 3+ in data set [3]; 1+ and 2+ in the data set on VZV; 1+ and 2+ and 3+ in the data set with adenovirus type 3 (ADV3); 2+ and 3+ in data set [4]. In addition, the “cell pathologic change degree” value in the data set with adenovirus type 7 (ADV7) is 2+ and 3+; in the data set on HSV-1 it was 1+ and 2+ and 3+. The “Solute: water” value in data set [5] is 9 mg/mL. The IC50 in the data set with coronavirus BJ01 strain is 119 µg/mL (≈ 332 µM). Moreover, the “TD50 (median toxic concentration)” value in the data set with Vero-E6 cell stood at 3.95 mg/mL. Besides, the solubility in [6] (setting [8]) was above 2000 µg/mL.

Regarding `COc1c(O)cc2occ(-c3ccc(O)c(S(=O)(=O)[O-])c3)c(=O)c2c1O.[Na+]` [Compound (IV), tectorigenin sodium sulfonate], the “clarity of the injection” value was “kept clarified” in data set [7] (2-15% glucose added, room temperature and low temperature (0° C.-5° C.)); “kept clear” in [7] (4% glucose added, room and low (0° C.˜5° C.) temperature). For the same compound, in data set [5], the “Solute: water” value came out at 67 mg/mL. In the data set on coronavirus BJ01 strain, half-maximal inhibition (IC50) was put at 97.6 µg/mL. For the same compound, the “TD50 (median toxic concentration)” value in the data set on Vero-E6 cell was 4.34 mg/mL. The solubility was 50000 to 60000 µg/mL in [6] (60 °C, after heating to 60˜100° C., read-out: water-solubility) and 20000 µg/mL in data set [6] (room temperature, read-out: water-solubility).
